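GI50 = concentration required for 50% inhibition of growth. At the TGI there is no net growth.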
Columns and labels:
Test in all cases: DTP human tumour cell line panel, 384-well format
786-0 renal = system: 786-0 renal
A498 renal = system: A498 renal
A549 NSCLC = system: A549 NSCLC
ACHN renal = system: ACHN renal
BT-549 breast = system: BT-549 breast
CAKI-1 renal = system: CAKI-1 renal
CCRF-CEM leukemia = system: CCRF-CEM leukemia
DU-145 prostate = system: DU-145 prostate
EKVX NSCLC = system: EKVX NSCLC
HCT-116 colon = system: HCT-116 colon
HCT-15 colon = system: HCT-15 colon
HL-60(TB) leukemia = system: HL-60(TB) leukemia
HOP-62 NSCLC = system: HOP-62 NSCLC
HOP-92 NSCLC = system: HOP-92 NSCLC
HS 578T breast = system: HS 578T breast
HT29 colon = system: HT29 colon
IGROV1 ovarian = system: IGROV1 ovarian
K-562 leukemia = system: K-562 leukemia
KM12 colon = system: KM12 colon
LOX IMVI melanoma = system: LOX IMVI melanoma
M14 melanoma = system: M14 melanoma
MALME-3M melanoma = system: MALME-3M melanoma
MCF7 breast = system: MCF7 breast
MDA-MB-231 breast = system: MDA-MB-231 breast
MDA-MB-435 melanoma = system: MDA-MB-435 melanoma
MDA-MB-468 breast = system: MDA-MB-468 breast
MOLT-4 leukemia = system: MOLT-4 leukemia
NCI-H226 lung = system: NCI-H226 lung
NCI-H23 lung = system: NCI-H23 lung
NCI-H322M lung = system: NCI-H322M lung
NCI-H522 lung = system: NCI-H522 lung
NCI/ADR-RES ovarian = system: NCI/ADR-RES ovarian
OVCAR-3 ovarian = system: OVCAR-3 ovarian
OVCAR-4 ovarian = system: OVCAR-4 ovarian
OVCAR-5 ovarian = system: OVCAR-5 ovarian
OVCAR-8 ovarian = system: OVCAR-8 ovarian
PC-3 prostate = system: PC-3 prostate
RPMI-8226 leukemia = system: RPMI-8226 leukemia
RXF 393 renal = system: RXF 393 renal
SF-268 CNS = system: SF-268 CNS
SF-295 CNS = system: SF-295 CNS
SF-539 CNS = system: SF-539 CNS
SK-MEL-2 melanoma = system: SK-MEL-2 melanoma
SK-MEL-28 melanoma = system: SK-MEL-28 melanoma
SK-OV-3 ovarian = system: SK-OV-3 ovarian
SN12C renal = system: SN12C renal
SNB-19 CNS = system: SNB-19 CNS
SNB-75 CNS = system: SNB-75 CNS
SW-620 colon = system: SW-620 colon
T-47D breast = system: T-47D breast
TK-10 renal = system: TK-10 renal
U251 glioblastoma = system: U251 glioblastoma
UACC-257 melanoma = system: UACC-257 melanoma
UACC-62 melanoma = system: UACC-62 melanoma
UO-31 renal = system: UO-31 renal

**Q.** `Clc1ccc(C(c2ccccc2Cl)C(Cl)Cl)cc1` (stereo not given) was tested. Which GI50 ([…]-0 renal) did it give?
**A.** 16.2 µM

**Q.** What about the TGI (786-0 renal) of the same compound?
**A.** 29.9 µM

**Q.** What about the GI50 (A498 renal) of the same compound?
**A.** 17.4 µM

**Q.** And the TGI (A498 renal)?
**A.** 31.3 µM

**Q.** What about the GI50 (A549 NSCLC) of the same compound?
**A.** 16.9 µM

**Q.** And the TGI (A549 NSCLC)?
**A.** 31 µM

**Q.** What about the GI50 (ACHN renal) of the same compound?
**A.** 16 µM

**Q.** What about the TGI (ACHN renal) of the same compound?
**A.** 29.6 µM

**Q.** And the GI50 (BT-549 breast)?
**A.** 18.5 µM

**Q.** And the TGI (BT-549 breast)?
**A.** 32.6 µM

**Q.** What about the GI50 (CAKI-1 renal) of the same compound?
**A.** 12.9 µM

**Q.** What about the TGI (CAKI-1 renal) of the same compound?
**A.** 25.7 µM

**Q.** What about the GI50 (CCRF-CEM leukemia) of the same compound?
**A.** 16.2 µM

**Q.** And the TGI (CCRF-CEM leukemia)?
**A.** 29.8 µM

**Q.** And the GI50 (DU-145 prostate)?
**A.** 16.8 µM

**Q.** And the TGI (DU-145 prostate)?
**A.** 30.7 µM

**Q.** And the GI50 (EKVX NSCLC)?
**A.** 17.3 µM

**Q.** And the TGI (EKVX NSCLC)?
**A.** 31.2 µM

**Q.** What about the GI50 (HCT-116 colon) of the same compound?
**A.** 14.5 µM

**Q.** And the TGI (HCT-116 colon)?
**A.** 28.2 µM

**Q.** And the GI50 (HCT-15 colon)?
**A.** 13.9 µM

**Q.** What about the TGI (HCT-15 colon) of the same compound?
**A.** 27.3 µM

**Q.** And the GI50 (HL-60(TB) leukemia)?
**A.** 10.5 µM

**Q.** What about the TGI (HL-60(TB) leukemia) of the same compound?
**A.** 22.4 µM

**Q.** And the GI50 (HOP-62 NSCLC)?
**A.** 19.5 µM

**Q.** What about the TGI (HOP-62 NSCLC) of the same compound?
**A.** 33.7 µM

**Q.** What about the GI50 (HOP-92 NSCLC) of the same compound?
**A.** 15.1 µM

**Q.** What about the TGI (HOP-92 NSCLC) of the same compound?
**A.** 28.5 µM

**Q.** What about the GI50 (HS 578T breast) of the same compound?
**A.** 17 µM

**Q.** What about the TGI (HS 578T breast) of the same compound?
**A.** 30.8 µM

**Q.** What about the GI50 (HT29 colon) of the same compound?
**A.** 15.1 µM

**Q.** And the TGI (HT29 colon)?
**A.** 28.9 µM

**Q.** What about the GI50 (IGROV1 ovarian) of the same compound?
**A.** 15 µM

**Q.** And the TGI (IGROV1 ovarian)?
**A.** 28.4 µM

**Q.** And the GI50 (K-562 leukemia)?
**A.** 17.9 µM

**Q.** What about the TGI (K-562 leukemia) of the same compound?
**A.** 32.1 µM

**Q.** What about the GI50 (KM12 colon) of the same compound?
**A.** 16.3 µM

**Q.** What about the TGI (KM12 colon) of the same compound?
**A.** 30.1 µM

**Q.** And the GI50 (LOX IMVI melanoma)?
**A.** 16.4 µM

**Q.** What about the TGI (LOX IMVI melanoma) of the same compound?
**A.** 30.1 µM

**Q.** What about the GI50 (M14 melanoma) of the same compound?
**A.** 16.6 µM

**Q.** What about the TGI (M14 melanoma) of the same compound?
**A.** 30.4 µM

**Q.** And the GI50 (MALME-3M melanoma)?
**A.** 14.7 µM

**Q.** What about the TGI (MALME-3M melanoma) of the same compound?
**A.** 27.9 µM

**Q.** What about the GI50 (MCF7 breast) of the same compound?
**A.** 17.6 µM

**Q.** What about the TGI (MCF7 breast) of the same compound?
**A.** 31.7 µM

**Q.** What about the GI50 (MDA-MB-231 breast) of the same compound?
**A.** 16.4 µM

**Q.** What about the TGI (MDA-MB-231 breast) of the same compound?
**A.** 30.1 µM

**Q.** And the GI50 (MDA-MB-435 melanoma)?
**A.** 16.8 µM

**Q.** What about the TGI (MDA-MB-435 melanoma) of the same compound?
**A.** 30.7 µM

**Q.** What about the GI50 (MDA-MB-468 breast) of the same compound?
**A.** 10.7 µM

**Q.** And the TGI (MDA-MB-468 breast)?
**A.** 22.7 µM

**Q.** What about the GI50 (MOLT-4 leukemia) of the same compound?
**A.** 5.16 µM

**Q.** What about the TGI (MOLT-4 leukemia) of the same compound?
**A.** 17.6 µM

**Q.** And the GI50 (NCI-H226 lung)?
**A.** 16.2 µM

**Q.** And the TGI (NCI-H226 lung)?
**A.** 29.9 µM

**Q.** What about the GI50 (NCI-H23 lung) of the same compound?
**A.** 17 µM

**Q.** What about the TGI (NCI-H23 lung) of the same compound?
**A.** 30.9 µM

**Q.** And the GI50 (NCI-H322M lung)?
**A.** 18.8 µM

**Q.** What about the TGI (NCI-H322M lung) of the same compound?
**A.** 33.2 µM

**Q.** And the GI50 (NCI-H522 lung)?
**A.** 12.9 µM

**Q.** What about the TGI (NCI-H522 lung) of the same compound?
**A.** 25.7 µM

**Q.** And the GI50 (NCI/ADR-RES ovarian)?
**A.** 17.4 µM

**Q.** And the TGI (NCI/ADR-RES ovarian)?
**A.** 31.4 µM

**Q.** What about the GI50 (OVCAR-3 ovarian) of the same compound?
**A.** 15.5 µM

**Q.** And the TGI (OVCAR-3 ovarian)?
**A.** 29 µM

**Q.** And the GI50 (OVCAR-4 ovarian)?
**A.** 15.7 µM

**Q.** What about the TGI (OVCAR-4 ovarian) of the same compound?
**A.** 29.3 µM

**Q.** What about the GI50 (OVCAR-5 ovarian) of the same compound?
**A.** 16.8 µM

**Q.** What about the TGI (OVCAR-5 ovarian) of the same compound?
**A.** 30.7 µM

**Q.** And the GI50 (OVCAR-8 ovarian)?
**A.** 17 µM

**Q.** What about the TGI (OVCAR-8 ovarian) of the same compound?
**A.** 30.9 µM

**Q.** What about the GI50 (PC-3 prostate) of the same compound?
**A.** 14.3 µM

**Q.** What about the TGI (PC-3 prostate) of the same compound?
**A.** 27.6 µM

**Q.** And the GI50 (RPMI-8226 leukemia)?
**A.** 14 µM

**Q.** And the TGI (RPMI-8226 leukemia)?
**A.** 27 µM

**Q.** What about the GI50 (RXF 393 renal) of the same compound?
**A.** 13.2 µM

**Q.** What about the TGI (RXF 393 renal) of the same compound?
**A.** 26.1 µM

**Q.** What about the GI50 (SF-268 CNS) of the same compound?
**A.** 16.7 µM

**Q.** And the TGI (SF-268 CNS)?
**A.** 30.5 µM

**Q.** What about the GI50 (SF-295 CNS) of the same compound?
**A.** 16.2 µM

**Q.** And the TGI (SF-295 CNS)?
**A.** 29.8 µM

**Q.** What about the GI50 (SF-539 CNS) of the same compound?
**A.** 17.3 µM

**Q.** And the TGI (SF-539 CNS)?
**A.** 31.2 µM

**Q.** What about the GI50 (SK-MEL-2 melanoma) of the same compound?
**A.** 19.1 µM

**Q.** What about the TGI (SK-MEL-2 melanoma) of the same compound?
**A.** 33.2 µM

**Q.** What about the GI50 (SK-MEL-28 melanoma) of the same compound?
**A.** 17.6 µM

**Q.** And the TGI (SK-MEL-28 melanoma)?
**A.** 31.5 µM

**Q.** And the GI50 (SK-OV-3 ovarian)?
**A.** 16.1 µM

**Q.** What about the TGI (SK-OV-3 ovarian) of the same compound?
**A.** 29.8 µM

**Q.** What about the GI50 (SN12C renal) of the same compound?
**A.** 15.7 µM

**Q.** What about the TGI (SN12C renal) of the same compound?
**A.** 29.3 µM

**Q.** And the GI50 (SNB-19 CNS)?
**A.** 17.2 µM

**Q.** And the TGI (SNB-19 CNS)?
**A.** 31.2 µM

**Q.** What about the GI50 (SNB-75 CNS) of the same compound?
**A.** 17.8 µM

**Q.** And the TGI (SNB-75 CNS)?
**A.** 32.3 µM

**Q.** What about the GI50 (SW-620 colon) of the same compound?
**A.** 15.1 µM

**Q.** And the TGI (SW-620 colon)?
**A.** 28.7 µM

**Q.** And the GI50 (T-47D breast)?
**A.** 15.5 µM

**Q.** What about the TGI (T-47D breast) of the same compound?
**A.** 29.1 µM

**Q.** And the GI50 (TK-10 renal)?
**A.** 16.7 µM

**Q.** And the TGI (TK-10 renal)?
**A.** 30.6 µM

**Q.** And the GI50 (U251 glioblastoma)?
**A.** 16.6 µM

**Q.** And the TGI (U251 glioblastoma)?
**A.** 30.5 µM

**Q.** What about the GI50 (UACC-257 melanoma) of the same compound?
**A.** 17.6 µM

**Q.** What about the TGI (UACC-257 melanoma) of the same compound?
**A.** 31.5 µM

**Q.** What about the GI50 (UACC-62 melanoma) of the same compound?
**A.** 17 µM

**Q.** What about the TGI (UACC-62 melanoma) of the same compound?
**A.** 30.8 µM

**Q.** What about the GI50 (UO-31 renal) of the same compound?
**A.** 16.6 µM

**Q.** What about the TGI (UO-31 renal) of the same compound?
**A.** 30.5 µM
